Experiments:
[1] = Rat pharmacokinetics: lung tissue and plasma concentration after IV or IT administration; type: in vivo, Sprague Dawley rats; settings: IV data, 60 min sample collection period
Experimental: Lung tissue and blood were collected for analysis.
Test System: 72 male Sprague Dawley rats (Charles River Laboratories) were used for the study, 8 weeks old, body weight range at study start was 245.8-317 g.
Experimental Design and Execution: In brief, after the animals were transferred to study, all animals were randomly assigned to treatment groups per the study design below. Animals were treated either via intravenous (IV) administration of formulation R1, or via intratracheal (IT) administration for formulation R2 of the test article.
Plasma and lung concentration vs. time data was analyzed using JMP version 15.2.0. Averages for each time point are reported for groups/time points that have a minimum of 2 animals.
The Therapeutic Advantage (Rd) in Table 8 was calculated using the following equation: […]

[2] = Appearance of about 30 mg/mL imatinib free base in 30% SBEβCD, 50 mM phosphate buffer at different pH; settings: about 30 mg/mL in 30% SBβCD

appearance of the mixture ([2]; pH 3): clear solutions
appearance of the mixture ([2]; pH 5): clear solutions
appearance of the mixture ([2]; pH 7): white suspension
SMILES: Cc1ccc(NC(=O)c2ccc(CN3CCN(C)CC3)cc2)cc1Nc1nccc(-c2cccnc2)n1 [imatinib free base, imatinib]
distribution between lung tissue and plasma [1]: preferentially accumulates in the lung tissue

— US20220241278A1 (InCarda Therapeutics, Inc., priority 2021, published 2022)
